Assay results as given in ChEMBL document CHEMBL1157533 (J Med Chem, 2008).
Blank lines part the entries; values can stand above or below the compound they belong to.

Legend:
[1] = Bioavailability in dog; assay type: ADME, organism-based, Canis lupus familiaris; conditions: in vivo
[2] = target: Beta-1 adrenergic receptor (Homo sapiens, UniProt P08588); assay: Agonist activity at human recombinant beta-1 adrenergic receptor expressed in CHO cells assessed as cAMP accumulation by enzyme immuno assay; assay type: functional, cell-based
[3] = Total clearance in dog at 0.1 mg/kg, iv by cassette assay; assay type: ADME, organism-based, Canis lupus familiaris; design: dose 0.1 mg/kg, route intravenous; conditions: in vivo
[4] = Cmax in dog at 0.1 mg/kg, po by cassette assay; assay type: ADME, organism-based, Canis lupus familiaris; design: dose 0.1 mg/kg, route oral; conditions: in vivo
[5] = Bioavailability in dog at 0.1 mg/kg, po by cassette assay; assay type: ADME, organism-based, Canis lupus familiaris; conditions: in vivo
[6] = Terminal half life in dog at 0.1 mg/kg, iv by cassette assay; assay type: ADME, organism-based, Canis lupus familiaris; design: dose 0.1 mg/kg, route intravenous; conditions: in vivo, read-out: beta t1/2 (converted)
[7] = target: Beta-3 adrenergic receptor (Homo sapiens, UniProt P13945); assay: Agonist activity at human recombinant beta3 adrenergic receptor expressed in CHO cells assessed as cAMP accumulation by enzyme immuno assay; assay type: functional, cell-based
[8] = AUC (0 to 24 hrs) in dog at 0.1 mg/kg, po by cassette assay; assay type: ADME, organism-based, Canis lupus familiaris; design: time < 24 hr, dose 0.1 mg/kg, route oral; conditions: plasma
[9] = AUC (0 to 24 hrs) in dog at 0.1 mg/kg, po; assay type: ADME, organism-based, Canis lupus familiaris; design: time < 24 hr, dose 0.1 mg/kg, route oral; conditions: plasma
[10] = Protein binding in Beagle dog serum; assay type: ADME, cell-free, Canis lupus familiaris; conditions: read-out: PPB (converted)
Rattus norvegicus [11] = assay: Terminal half life in rat at 0.34 mg/kg, iv by cassette assay; assay type: ADME, organism-based; design: dose 0.34 mg/kg, route intravenous; conditions: in vivo
[12] = Terminal half life in dog at 0.1 mg/kg, iv; assay type: ADME, organism-based, Canis lupus familiaris; design: dose 0.1 mg/kg, route intravenous; conditions: in vivo, read-out: beta t1/2 (converted)
[13] = target: Beta-3 adrenergic receptor (Canis lupus familiaris, UniProt O02662); assay: Agonist activity at dog recombinant beta3 adrenergic receptor expressed in CHO cells assessed as cAMP accumulation by enzyme immuno assay; assay type: functional, cell-based
[14] = Bioavailability in dog at 0.1 mg/kg, po; assay type: ADME, organism-based, Canis lupus familiaris; conditions: in vivo
[15] = Bioavailability in monkey at 0.32 mg/kg, po by cassette assay; assay type: ADME, organism-based, Macaca mulatta; conditions: rhesus monkey, in vivo
[16] = Total clearance in dog at 0.1 mg/kg, iv; assay type: ADME, organism-based, Canis lupus familiaris; design: dose 0.1 mg/kg, route intravenous; conditions: in vivo
[17] = Cmax in monkey at 0.32 mg/kg, po by cassette assay; assay type: ADME, organism-based, Macaca mulatta; design: dose 0.32 mg/kg, route oral; conditions: rhesus monkey, in vivo
Rattus norvegicus [18] = assay: Bioavailability in rat at 0.34 mg/kg, po by cassette assay; assay type: ADME, organism-based; conditions: in vivo
[19] = Cmax in rat at 0.34 mg/kg, po by cassette assay; assay type: ADME, organism-based; design: dose 0.34 mg/kg, route oral; conditions: in vivo
Canis familiaris = species on record: Canis familiaris; assay: cells; conditions: Canis lupus familiaris, 3 h
Description: Inhibition of carbachol-induced increase in intravesical pressure in intraduodenally dosed Beagle dog OAB model for 180 mins

[20] = Cmax in dog at 0.1 mg/kg, po; assay type: ADME, organism-based, Canis lupus familiaris; design: dose 0.1 mg/kg, route oral; conditions: in vivo
[21] = Total clearance in rat at 0.34 mg/kg, iv by cassette assay; assay type: ADME, organism-based; design: dose 0.34 mg/kg, route intravenous; conditions: in vivo
[22] = Terminal half life in monkey plasma at 0.32 mg/kg, iv by cassette assay; assay type: ADME, organism-based, Macaca mulatta; design: dose 0.32 mg/kg, route intravenous; conditions: rhesus monkey, read-out: beta t1/2 (converted)
[23] = AUC (0 to 24 hrs) in rat at 0.34 mg/kg, po by cassette assay; assay type: ADME, organism-based; design: time < 24 hr, dose 0.34 mg/kg, route oral; conditions: plasma
[24] = Total clearance in monkey at 0.32 mg/kg, iv by cassette assay; assay type: ADME, organism-based, Macaca mulatta; design: dose 0.32 mg/kg, route intravenous; conditions: rhesus monkey, in vivo
[25] = target: Beta-2 adrenergic receptor (Homo sapiens, UniProt P07550); assay: Agonist activity at human recombinant beta2 adrenergic receptor expressed in CHO cells assessed as cAMP accumulation by enzyme immuno assay; assay type: functional, cell-based
[26] = AUC (0 to 24 hrs) in monkey at 0.32 mg/kg, po by cassette assay; assay type: ADME, organism-based, Macaca mulatta; design: time < 24 hr, dose 0.32 mg/kg, route oral; conditions: rhesus monkey, plasma

Sequence of Beta-1 adrenergic receptor (P08588 whole entry): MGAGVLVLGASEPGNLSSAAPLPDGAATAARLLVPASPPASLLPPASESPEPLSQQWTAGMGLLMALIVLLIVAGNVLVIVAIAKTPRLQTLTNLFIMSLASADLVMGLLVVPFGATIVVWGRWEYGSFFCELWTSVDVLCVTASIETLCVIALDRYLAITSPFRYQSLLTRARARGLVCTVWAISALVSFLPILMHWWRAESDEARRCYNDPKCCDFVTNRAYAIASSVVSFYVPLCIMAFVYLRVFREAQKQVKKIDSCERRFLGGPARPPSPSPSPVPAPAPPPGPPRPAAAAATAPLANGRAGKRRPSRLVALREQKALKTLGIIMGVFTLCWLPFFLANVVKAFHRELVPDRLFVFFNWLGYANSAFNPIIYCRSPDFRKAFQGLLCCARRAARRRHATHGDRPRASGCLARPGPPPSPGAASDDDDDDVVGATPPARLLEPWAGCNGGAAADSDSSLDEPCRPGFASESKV
Sequence of Beta-3 adrenergic receptor (Homo sapiens, UniProt P13945) (P13945 whole entry): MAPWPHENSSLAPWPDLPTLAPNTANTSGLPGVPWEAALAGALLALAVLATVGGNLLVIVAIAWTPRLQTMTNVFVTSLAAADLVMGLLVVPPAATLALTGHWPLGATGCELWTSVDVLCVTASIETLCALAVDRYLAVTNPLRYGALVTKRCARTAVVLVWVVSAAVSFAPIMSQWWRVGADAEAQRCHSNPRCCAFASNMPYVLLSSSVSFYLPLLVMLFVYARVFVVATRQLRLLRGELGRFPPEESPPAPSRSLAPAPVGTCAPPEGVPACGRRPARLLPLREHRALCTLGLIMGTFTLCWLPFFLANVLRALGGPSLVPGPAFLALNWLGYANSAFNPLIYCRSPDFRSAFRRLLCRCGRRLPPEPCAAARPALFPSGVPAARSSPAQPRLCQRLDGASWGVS
Sequence of Beta-3 adrenergic receptor (Canis lupus familiaris, UniProt O02662) (O02662 whole entry): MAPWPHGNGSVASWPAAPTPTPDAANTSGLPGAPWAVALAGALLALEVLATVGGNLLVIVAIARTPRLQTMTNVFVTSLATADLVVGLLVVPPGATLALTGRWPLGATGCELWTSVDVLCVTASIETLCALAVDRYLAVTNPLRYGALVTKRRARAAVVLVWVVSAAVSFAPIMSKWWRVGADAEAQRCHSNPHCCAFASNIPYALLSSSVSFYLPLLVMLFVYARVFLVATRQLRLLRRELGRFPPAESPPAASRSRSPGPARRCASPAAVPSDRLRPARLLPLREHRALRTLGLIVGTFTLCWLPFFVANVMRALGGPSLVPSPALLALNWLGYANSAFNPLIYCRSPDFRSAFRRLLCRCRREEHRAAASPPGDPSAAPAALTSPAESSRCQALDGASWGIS
Sequence of Beta-2 adrenergic receptor (P07550 whole entry): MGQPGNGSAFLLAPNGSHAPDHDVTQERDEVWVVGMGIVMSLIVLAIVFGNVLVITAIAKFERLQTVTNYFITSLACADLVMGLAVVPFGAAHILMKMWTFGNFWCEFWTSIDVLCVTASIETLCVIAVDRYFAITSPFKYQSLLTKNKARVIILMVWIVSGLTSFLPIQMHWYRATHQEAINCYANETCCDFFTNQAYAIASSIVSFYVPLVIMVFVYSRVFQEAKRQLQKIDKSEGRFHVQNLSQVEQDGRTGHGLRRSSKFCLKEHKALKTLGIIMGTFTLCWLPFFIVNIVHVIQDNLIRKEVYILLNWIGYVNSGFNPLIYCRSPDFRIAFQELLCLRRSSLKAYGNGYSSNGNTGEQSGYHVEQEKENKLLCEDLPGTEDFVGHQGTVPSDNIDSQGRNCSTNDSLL

bioavailability [1]: 0%
Compound: O=C(O)c1ccc(-c2ccc(CCNC[C@H](O)c3cccc(Cl)c3)cc2)cc1OC1CCCCC1

bioavailability [1]: 58%
Compound: COc1cc(-c2ccc(CCNC[C@H](O)c3cccc(Cl)c3)cc2)ccc1C(=O)O

EC50 [2]: 120 nM
clearance [3]: 0.174 L/h/kg
Cmax [4]: 0.0406 µg/mL
bioavailability [5]: 69.7%
half-life [6]: 10.9 h
EC50 [7]: 0.21 nM
AUC(0-t) at 24 h [8]: 0.42 µg·h/mL
Compound: CCCOc1cc(-c2ccc(OCCNC[C@H](O)c3cccc(Cl)c3)cc2)ccc1C(=O)O

AUC(0-t) at 24 h [9]: 0.134 µg·h/mL
fraction unbound [10]: 0.14
beta t1/2 (Rattus norvegicus [11]): 8.2 h
half-life [12]: 14.3 h
EC50 [13]: 3.7 nM
EC50 [2]: 780 nM
bioavailability [14]: 63.9%
bioavailability [15]: 88.2%
clearance [16]: 0.438 L/h/kg
Cmax [17]: 0.178 µg/mL
bioavailability (Rattus norvegicus [18]): 100%
Cmax [19]: 0.125 µg/mL
EC50 (Canis familiaris): 9.5 nM
Cmax [20]: 0.0074 µg/mL
clearance [21]: 0.408 L/h/kg
half-life [22]: 29 h
AUC(0-t) at 24 h [23]: 0.88 µg·h/mL
clearance [24]: 0.15 L/h/kg
EC50 [7]: 0.81 nM
EC50 [25]: > 10000 nM
AUC(0-t) at 24 h [26]: 1.8 µg·h/mL
Compound: CC(C)Oc1cc(-c2ccc(CCN[C@@H](C)[C@H](O)c3ccccc3)cc2)ccc1C(=O)O
ED50 (Canis familiaris): 0.02 mg/kg

Compound: CC(C)Cc1cc(-c2ccc(OCCNC[C@H](O)c3ccc(N)nc3)cc2)ccc1C(=O)O
EC50 [2]: 12 nM
clearance [3]: 0.852 L/h/kg
Cmax [4]: 0.0116 µg/mL
bioavailability [5]: 34.8%
half-life [6]: 9.5 h
EC50 [7]: 0.059 nM
AUC(0-t) at 24 h [8]: 0.0382 µg·h/mL
